pIC50: −log10 of the molar value.

One assay relates to HeLa cells. In words: Cell proliferation assay (XTT), cytostatic activity. The class given is cell-based. The settings on record: 72-h treatment, XTT cell proliferation kit. The method, then: […] cells were seeded in 96-well plates and incubated in the presence or the absence of the indicated compounds at concentrations ranging from 10^-5 to 10^-12 M. The cytostatic activity was measured after 72-h treatments using the XTT (sodium 3'-[1-(phenylaminocarbonyl)-3,4-tetrazolium]-bis(4- methoxy-6-nitro)-benzenesulfonic acid hydrate) cell proliferation kit (Roche Molecular Biochemicals; Mannheim, Germany) following the manufacturer's specifications. Each condition was seeded in triplicate, and experiments were repeated three times to calculate IC values by non-linear regression fitting the data.
Background: Tetrazolium dyes change colour on reduction, which living cells bring about.
For `COc1cc(C(=NO)c2ccc3c(c2)c(C#N)cn3C)cc(SC)n1` [Compound 88], the pIC50 (usually −log10 of the IC50, conventionally taken in molar units) is < 6.00. Same read-out and setting: then `C=C(c1cc(Cl)nc(SC)c1)c1ccc2c(c1)c(C#N)cn2C` [Compound 71], with 7.00; and `COc1cc(C(=NO)c2ccc3c(ccn3C)c2)cc(OC)c1OC` (mixture of isomers) [Compound 7, (E/Z)-(I-Methyl-1H-indol-5-yl)(3,4,5-trimethoxyphenyl)methanone oxime], with 6.44. The same measure, in the same setting: then “1-Methyl-5-[1-(2,3,4-trimethoxyphenyl)vinyl]-1H-indol-3-ylmethanol [Compound 18]”, with 6.52.

The same assay, now with this note: Homo sapiens, 72-h treatment, XTT cell proliferation kit.
The compound `COc1cc(C(C)c2ccc3c(ccn3C)c2)cc(OC)c1OC` (stereo not shown) [Compound 13, 1-Methyl-5-(1-(3,4,5-trimethoxyphenyl)ethyl)-1H-indole] showed a pIC50 of 9.19. As to `CSc1cc(C(=NO)c2ccc3c(c2)c(C#N)cn3C)cc(N(C)C)n1` [Compound 95, 5-((2-(dimethylamino)-6-(methylthio)pyridin-4-yl)(hydroxyimino)methyl)-1-methyl-1H-indole-3-carbonitrile], the pIC50 was 6.52. The compound `CSc1cc(C(=NO)c2ccc3c(ccn3C)c2)cc(N(C)C)n1` [Compound 91, (2-(Dimethylamino)-6-(methylthio)pyridin-4-yl)(1-methyl-1H-indol-5-yl)methanone oxime] gave a negative-log IC50 (pIC50) of 6.22. For `COc1cc(C(=O)c2ccc3c(ccn3C)c2)cc(SC)n1` [Compound 81, (2-methoxy-6-(methylthio)pyridin-4-yl)(1-methyl-1H-indol-5-yl)methanone], the pIC50 was 6.70. The same measure, in the same setting: the same measure for `C=C(c1cc(OC)c(OC)c(OC)c1)c1ccc2c(c1)c(C=O)cn2C` [Compound 11, 1-Methyl-5-[1-(3,4,5-trimethoxyphenyl)vinyl]-1H-indole-3-carbaldehyde]: 7.70; for `C=C(c1cc(Cl)nc(N(C)C)c1)c1ccc2c(ccn2C)c1` [Compound 99, 6-chloro-N,N-dimethyl-4-(1-(1-methyl-1H-indol-5-yl)vinyl)pyridin-2-amine]: 7.00. Turning to `COc1ccc(/C(=N\O)c2ccc3c(ccn3C)c2)c(OC)c1OC` [Compound 8, Z-(1-methyl-1H-indol-5-yl)(2,3,4-trimethoxyphenyl)methanone oxime], the pIC50 was 7.12. For `C=C(c1ccc2c(c1)c(C=NO)cn2C)c1ccc(OC)c(OC)c1OC` [Compound 20, 1-Methyl-5-[1-(2,3,4-trimethoxyphenyl)vinyl]-1H-indol-3-carbaldehyde oxime], the pIC50 was 7.47. On the same count and under the same terms, then `COc1cc(C(O)c2ccc3c(ccn3C)c2)cc(OC)c1OC` (stereo not shown) [Compound 1, (1-methyl-1H-indol-5-yl)(3,4,5-trimethoxyphenyl)methanol], with < 6.00; and `C=C(c1cc(Cl)nc(Cl)c1)c1ccc2c(c1)c(C#N)cn2C` [Compound 62, 5-(1-(2,6-dichloropyridin-4-yl)vinyl)-1-methyl-1H-indole-3-carbonitrile], with 7.10; and `COc1cc(C(=O)c2ccc3c(c2)c(C=O)cn3C)cc(SC)n1` [Compound 84, 5-(2-methoxy-6-(methylsulfanyl)isonicotinoyl)-1-methyl-1H-indole-3-carbaldehyde], with < 6.00. Still for that read-out and setting: the same measure for `C=C(c1cc(SC)nc(N(C)C)c1)c1ccc2c(c1)c(C#N)cn2C` [Compound 96, 5-(1-(2-(dimethylamino)-6-(methylthio)pyridin-4-yl)vinyl)-1-methyl-1H-indole-3-carbonitrile]: 6.22; for `Cn1cc(C=O)c2cc(C(=O)c3cc(Cl)nc(Cl)c3)ccc21` [Compound 57, 5-(2,6-dichloroisonicotinoyl)-1-methyl-1H-indole-3-carbaldehyde]: < 6.00. Still for that read-out and setting: the same measure for `C=C(c1cc(SC)nc(SC)c1)c1ccc2c(c1)c(C(=O)O)cn2C` [Compound 80, 5-(1-(2,6-Bis(methylsulfanyl)pyridin-4-yl)vinyl)-1-methyl-1H-indole-3-carboxylic acid]: < 6.00; for `Cn1cc(C=NO)c2cc(C(=NO)c3cc(Cl)nc(Cl)c3)ccc21` [Compound 59, 5-((2,6-dichloropyridin-4-yl)(hydroxyimino)methyl)-1-methyl-1H-indole-3-carbaldehyde oxime]: < 6.00; for `C=C(c1cc(SC)nc(SC)c1)c1ccc2c(c1)c(C=O)cn2C` [Compound 77, 5-(1-(2,6-bis(methylsulfanyl)pyridin-4-yl)vinyl)-1-methyl-1H-indole-3-carbaldehyde]: 7.00.

`CSc1cc(C(=NO)c2ccc3c(ccn3C)c2)cc(SC)n1` (mixture of isomers) [Compound 75, (E/Z)-(2,6-bis(methylsulfanyl)pyridin-4-yl) (1-methyl-1H-indol-5-yl)methanone oximes] had a pIC50 of 6.30. Same read-out and setting: then `COc1ccc(C(O)c2ccc3c(ccn3C)c2)c(OC)c1OC` (stereo not shown) [Compound 2, (1-methyl-1H-indol-5-yl)(2,3,4-trimethoxyphenyl)methanol], with < 6.00; and `C=C(c1cc(SC)nc(N(C)C)c1)c1ccc2c(ccn2C)c1` [Compound 90, N,N-dimethyl-4-(1-(1-methyl-1H-indol-5-yl)vinyl)-6-(methylthio)pyridin-2-amine], with 6.70; and `COc1ccc(C(C)c2ccc3c(ccn3C)c2)c(OC)c1OC` (stereo not shown) [Compound 14, 1-Methyl-5-(1-(2,3,4-trimethoxyphenyl)ethyl)-1H-indole], with 6.51. On the same count and under the same terms, the same measure for `CSc1cc(C(=O)c2ccc3c(c2)c(C=O)cn3C)cc(Cl)n1` [Compound 67, 5-(2-Chloro-6-(methylsulfanyl)isonicotinoyl)-1-methyl-1H indole-3-carbaldehyde]: < 6.00.

For `C=C(c1cc(Cl)nc(SC)c1)c1ccc2c(ccn2C)c1` [Compound 65, 5-(1-(2-Chloro-6-(methylsulfanyl)pyridin-4-yl)vinyl)-1-methyl-1H-indole], the pIC50 is 7.00.

Regarding `C=C(c1cc(OC)c(OC)c(OC)c1)c1ccc2c(c1)c(C(N)=O)cn2C` [Compound 25, 1-Methyl-5-(1-(3,4,5-trimethoxyphenyl)vinyl)-1H-indole-3-carboxamide], the pIC50 was 8.60. Compound `C=C(c1ccc2c(c1)c(C#N)cn2C)c1ccc(OC)c(OC)c1OC` [Compound 24, 1-Methyl-5-[1-(2,3,4-trimethoxyphenyl)vinyl]-1H-indole-3-carbonitrile] had a pIC50 of 7.49.

As for `COc1cc(C(=O)c2ccc3c(ccn3C)c2)cc(OC)c1OC` [Compound 3, (1-methyl-1H-indol-5-yl)(3,4,5-trimethoxyphenyl)methanone], the pIC50 was 7.60. Same read-out and setting: the same measure for `COc1cc(/C=C\c2ccc3c(ccn3C)c2)cc(OC)c1OC` [Compound 27, (Z)-1-Methyl-5-[2-(3,4,5-trimethoxyphenyl)vinyl)-1H-indole]: 6.60; for `C=C(c1cc(OC)c(OC)c(OC)c1)c1ccc2c(c1)c(C=NO)cn2C` [Compound 19, 1-Methyl-5-[1-(3,4,5-trimethoxyphenyl)vinyl]-1H-indole-3-carbaldehyde oxime]: 8.21; for `C=C(c1cc(Cl)nc(Cl)c1)c1ccc2c(c1)c(C=O)cn2C` [Compound 58, 5-(1-(2,6-dichloropyridin-4-yl)vinyl)-1-methyl-1H-indole-3-carbaldehyde]: 6.70. Same read-out and setting: then `COc1cc(C(=O)c2ccc3c(c2)c(C#N)cn3C)cc(SC)n1` [Compound 87, 5-(2-methoxy-6-(methylsulfanyl)isonicotinoyl)-1-methyl-1H-indole-3-carbonitrile], with 6.10. In the case of `C=C(c1cc(OC)c(OC)c(OC)c1)c1ccc2c(c1)c(C(=O)O)cn2C` [Compound 16, 1-Methyl-5-(1-(3,4,5-trimethoxyphenyl)vinyl)-1H-indole-3-carboxylic acid], the pIC50 is < 5.00.

As for `C=C(c1cc(Cl)nc(N(C)C)c1)c1ccc2c(c1)c(C#N)cn2C` [Compound 100, 5-(1-(2-chloro-6-(dimethylamino)pyridin-4-yl)vinyl)-1-methyl-1H-indole-3-carbonitrile], the negative-log IC50 (pIC50) was 6.22. Still for that read-out and setting: then `C=C(c1ccc2c(ccn2C)c1)c1ccc(OC)c(OC)c1OC` [Compound 6, 1-methyl-5-(1-(2,3,4-trimethoxyphenyl)vinyl)-1H-indole], with 7.49; and `COc1ccc(C(=O)c2ccc3c(ccn3C)c2)c(OC)c1OC` [Compound 4, (1-methyl-1H-indol-5-yl)(2,3,4-trimethoxyphenyl)methanone], with 7.77. Still for that read-out and setting: then `CSc1cc(C(=O)c2ccc3c(ccn3C)c2)cc(Cl)n1` [Compound 64, (2-chloro-6-(methylthio)pyridin-4-yl)(1-methyl-1H-indol-5-yl)methanone], with 6.52; and `C=C(c1cc(Cl)nc(Cl)c1)c1ccc2c(c1)c(C=NO)cn2C` [Compound 61, 5-(1-(2,6-dichloropyridin-4-yl)vinyl)-1-methyl-1H-indole-3-carbaldehyde oxime], with < 6.00.

In turn, `CSc1cc(C(=NO)c2ccc3c(c2)c(C#N)cn3C)cc(Cl)n1` (mixture of isomers) [Compound 69, (E/Z)-5-((2-chloro-6-(methylsulfanyl)pyridin-4-yl)(hydroxyimino)methyl)-1-methyl-1H-indole-3-carbonitrile] gave a pIC50 of 7.22. The same measure, in the same setting: the same measure for `C=C(c1cc(Cl)nc(Cl)c1)c1ccc2c(ccn2C)c1` [Compound 56, 5-(1-(2,6-dichloropyridin-4-yl)vinyl)-1-methyl-1H-indole]: 7.40. Same read-out and setting: the same measure for `CSc1cc(C(=O)c2ccc3c(c2)c(C=O)cn3C)cc(N(C)C)n1` [Compound 92, 5-(2-(dimethylamino)-6-(methylthio)isonicotinoyl)-1-methyl-1H-indole-3-carbaldehyde]: < 6.00. Still for that read-out and setting: the same measure for `C=C(c1cc(OC)nc(SC)c1)c1ccc2c(c1)c(C=O)cn2C` [Compound 85, 5-(1-(2-methoxy-6-(methylsulfanyl)pyridin-4-yl)vinyl)-1-methyl-1H-indole-3-carbaldehyde]: 6.40.

The record behind these values is patent EP4620466A1, “TRIMETHOXYSTYRYL DERIVATIVES FOR USE IN THE TREATMENT OF PACLITAXEL-RESISTANT CANCER” (Instituto de Investigación Biomédica de Salamanca De la …, priority 2024, dated 2025).
